Assay results: patent US11572590B2, “Methods for evaluating tumor cell spheroids using 3D microfluidic cell culture device” (Dana-Farber Cancer Institute, Inc., priority 2017, dated 2023)
Like-named read-outs stand apart in the source and are kept apart here.

How the values were obtained:
Experiment in all cases: SelectScreen Kinase Profiling, single point inhibition and IC50 for off-target kinases
Type in all cases: biochemical
off-target kinases [1] = molecular target: T1, off-target kinases (Homo sapiens, UniProt Q96BR1); conditions: SGKL (SGK3), ZLYTE, ATP Km app
T1 sequence (Q96BR1 1-496): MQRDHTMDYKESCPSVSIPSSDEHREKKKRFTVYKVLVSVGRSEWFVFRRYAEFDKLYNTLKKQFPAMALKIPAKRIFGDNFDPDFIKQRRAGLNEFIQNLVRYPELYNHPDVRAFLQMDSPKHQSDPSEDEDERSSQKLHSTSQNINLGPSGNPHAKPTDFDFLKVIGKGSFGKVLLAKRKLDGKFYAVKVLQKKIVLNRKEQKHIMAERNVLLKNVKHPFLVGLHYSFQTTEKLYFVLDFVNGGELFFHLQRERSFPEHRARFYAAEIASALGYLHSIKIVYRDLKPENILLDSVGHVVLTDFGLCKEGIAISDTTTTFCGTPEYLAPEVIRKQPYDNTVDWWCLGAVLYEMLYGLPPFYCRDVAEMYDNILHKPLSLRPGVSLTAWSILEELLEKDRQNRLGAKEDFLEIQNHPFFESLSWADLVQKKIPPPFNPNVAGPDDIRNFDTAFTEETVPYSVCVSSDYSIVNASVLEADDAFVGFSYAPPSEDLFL

off-target kinases [2] = system: off-target kinases
off-target kinases [3] = molecular target: T2, off-target kinases (Homo sapiens, UniProt Q96PY6); conditions: NEK1, ATP Km app, ZLYTE
T2 sequence (Q96PY6 1-1258): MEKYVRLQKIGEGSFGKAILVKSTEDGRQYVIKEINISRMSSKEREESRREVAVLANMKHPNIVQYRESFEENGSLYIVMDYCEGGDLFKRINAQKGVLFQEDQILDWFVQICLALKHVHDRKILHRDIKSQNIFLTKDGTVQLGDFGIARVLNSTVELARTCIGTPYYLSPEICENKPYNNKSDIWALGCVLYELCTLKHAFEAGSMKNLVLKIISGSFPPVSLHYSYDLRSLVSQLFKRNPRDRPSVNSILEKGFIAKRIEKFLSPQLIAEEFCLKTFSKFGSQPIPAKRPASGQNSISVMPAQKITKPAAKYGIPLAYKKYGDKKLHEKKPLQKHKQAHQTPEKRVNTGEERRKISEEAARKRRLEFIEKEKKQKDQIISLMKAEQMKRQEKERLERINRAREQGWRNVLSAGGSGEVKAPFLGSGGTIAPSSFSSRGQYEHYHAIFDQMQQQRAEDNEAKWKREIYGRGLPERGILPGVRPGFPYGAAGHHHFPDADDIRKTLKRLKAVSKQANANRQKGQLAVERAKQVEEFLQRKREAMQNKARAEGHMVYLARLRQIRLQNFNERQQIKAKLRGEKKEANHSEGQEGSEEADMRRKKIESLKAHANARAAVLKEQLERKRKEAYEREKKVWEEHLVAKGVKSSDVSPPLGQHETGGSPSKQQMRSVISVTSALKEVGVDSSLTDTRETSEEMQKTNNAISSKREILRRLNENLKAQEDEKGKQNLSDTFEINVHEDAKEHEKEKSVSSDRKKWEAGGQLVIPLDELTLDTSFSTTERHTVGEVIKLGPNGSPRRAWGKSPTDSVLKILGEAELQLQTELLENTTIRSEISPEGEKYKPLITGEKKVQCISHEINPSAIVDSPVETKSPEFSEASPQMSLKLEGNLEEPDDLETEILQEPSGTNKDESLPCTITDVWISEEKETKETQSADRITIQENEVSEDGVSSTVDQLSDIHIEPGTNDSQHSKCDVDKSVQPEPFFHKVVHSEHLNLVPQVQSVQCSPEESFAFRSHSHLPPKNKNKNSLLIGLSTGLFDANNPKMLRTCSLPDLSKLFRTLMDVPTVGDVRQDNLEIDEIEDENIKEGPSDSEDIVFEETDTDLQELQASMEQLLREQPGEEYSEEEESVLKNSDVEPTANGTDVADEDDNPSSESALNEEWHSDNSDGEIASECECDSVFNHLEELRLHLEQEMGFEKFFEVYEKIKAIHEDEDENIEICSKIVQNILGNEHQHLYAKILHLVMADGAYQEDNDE

off-target kinases [4] = molecular target: off-target kinases (Homo sapiens, UniProt Q9UM73, L1196M); conditions: ALKL1196M (mutant), LanthaScreen Binding
Sequence of off-target kinases (Homo sapiens, UniProt Q9UM73, L1196M) (Q9UM73 19-1620 L1196M): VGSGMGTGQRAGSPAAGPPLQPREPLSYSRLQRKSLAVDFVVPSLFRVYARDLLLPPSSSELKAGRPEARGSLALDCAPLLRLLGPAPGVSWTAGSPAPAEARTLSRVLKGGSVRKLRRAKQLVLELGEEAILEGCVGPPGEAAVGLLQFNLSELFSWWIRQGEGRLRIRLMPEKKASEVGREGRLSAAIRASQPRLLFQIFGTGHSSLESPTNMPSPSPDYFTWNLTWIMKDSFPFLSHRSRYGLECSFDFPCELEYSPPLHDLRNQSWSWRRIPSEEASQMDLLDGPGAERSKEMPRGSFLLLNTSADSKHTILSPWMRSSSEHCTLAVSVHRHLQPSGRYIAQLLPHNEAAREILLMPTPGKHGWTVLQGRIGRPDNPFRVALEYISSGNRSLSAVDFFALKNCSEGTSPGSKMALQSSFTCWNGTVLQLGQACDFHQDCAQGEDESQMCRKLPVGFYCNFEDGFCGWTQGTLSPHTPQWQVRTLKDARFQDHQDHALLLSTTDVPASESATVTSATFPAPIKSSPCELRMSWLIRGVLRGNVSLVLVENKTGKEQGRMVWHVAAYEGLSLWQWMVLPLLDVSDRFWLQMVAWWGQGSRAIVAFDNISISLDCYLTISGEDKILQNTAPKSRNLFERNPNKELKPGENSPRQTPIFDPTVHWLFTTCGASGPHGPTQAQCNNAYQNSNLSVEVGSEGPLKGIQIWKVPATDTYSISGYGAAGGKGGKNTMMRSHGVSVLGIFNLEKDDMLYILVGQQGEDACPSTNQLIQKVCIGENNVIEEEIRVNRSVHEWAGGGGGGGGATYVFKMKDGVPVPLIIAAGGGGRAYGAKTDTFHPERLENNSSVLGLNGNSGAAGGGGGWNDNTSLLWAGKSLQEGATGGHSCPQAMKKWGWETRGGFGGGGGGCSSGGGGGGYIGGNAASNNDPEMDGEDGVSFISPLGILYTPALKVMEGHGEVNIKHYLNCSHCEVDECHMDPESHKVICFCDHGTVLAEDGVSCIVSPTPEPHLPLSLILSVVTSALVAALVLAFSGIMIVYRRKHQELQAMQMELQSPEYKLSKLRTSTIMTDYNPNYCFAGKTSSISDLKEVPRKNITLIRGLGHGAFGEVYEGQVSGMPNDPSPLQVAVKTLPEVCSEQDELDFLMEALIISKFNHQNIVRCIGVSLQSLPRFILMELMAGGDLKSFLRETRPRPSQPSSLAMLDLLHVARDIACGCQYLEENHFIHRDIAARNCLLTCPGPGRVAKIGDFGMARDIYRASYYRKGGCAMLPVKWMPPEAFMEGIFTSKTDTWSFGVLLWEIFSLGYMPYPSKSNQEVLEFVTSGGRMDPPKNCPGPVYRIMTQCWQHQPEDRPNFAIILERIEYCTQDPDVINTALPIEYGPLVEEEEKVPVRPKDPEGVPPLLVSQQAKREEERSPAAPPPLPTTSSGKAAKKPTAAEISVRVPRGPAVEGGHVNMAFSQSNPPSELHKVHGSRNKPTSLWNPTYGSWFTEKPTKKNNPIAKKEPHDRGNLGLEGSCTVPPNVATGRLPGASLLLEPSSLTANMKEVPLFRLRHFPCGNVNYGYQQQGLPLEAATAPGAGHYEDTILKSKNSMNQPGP

N#Cc1cc(-c2ncnc(Nc3ccc(N4CCN(C5COC5)CC4)cc3)n2)ccc1OC1CCOCC1 [Compound 1, 5-(4-((4-(4-(oxetan-3-yl)piperazin-1-yl)phenyl)amino)-1,3,5-triazin-2-yl)-2-((tetrahydro-2H-pyran-4-yl)oxy)benzonitrile]
inhibition (off-target kinases [1]; read-out: % Inhibition 1): 3%
inhibition (off-target kinases [1]; read-out: % Inhibition 2): 4%
inhibition (off-target kinases [1]; read-out: % Inhibition Avg): 3%
JAK inhibitory activity (off-target kinases [2]): lacks JAK inhibitory activity
inhibition (off-target kinases [3]; read-out: % Inhibition 1): 68%
inhibition (off-target kinases [3]; read-out: % Inhibition 2): 70%
inhibition (off-target kinases [3]; read-out: % Inhibition Avg): 69%
inhibition (off-target kinases [4]; read-out: % Inhibition 1): 1%
inhibition (off-target kinases [4]; read-out: % Inhibition 2): 9%
inhibition (off-target kinases [4]; read-out: % Inhibition Avg): 5%
